Assay results as given in patent US20180201651A1, “PHARMACEUTICAL COMPOSITION THAT IS ANTICANCER AND SUPPRESSES CANCER METASTASIS, CONTAINING, AS ACTIVE INGREDIENT, FUSION PEPTIDE SIMULTANEOUSLY TARGETING CANCER CELL AND TUMOR ASSOCIATED MACROPHAGE” (Kyungpook National University Industry-Academic Cooperation …, priority 2015, published 2018).
Where no end group is shown, it is not given here.

How the values were obtained:
IL-4 receptor [1] = test: Immunofluorescent staining of IL4RPep-1 bound to IL-4 receptors and cells; assay type: cell-based
Experimental: In order to test whether the peptides binds to cells, tumor cells were blocked with 1% BSA solution initially, 10 μM FITC-labeled IL4RPep1 peptides of SEQ ID NO: 1 were then incubated at 4° C. for 1 hour. The cells were washed and fixed with 4% PFA, while their nuclei were stained with DAPI.
To evaluate the expression level of IL-4 receptor in the cells or tumor tissues, immunostaining was performed on frozen tissue sections or fixed mouse tumor cell lines by using anti-IL-4R, anti-IL13Rα1 and anti-IL2R γC antibodies.
After being washed with PBS, the cells were incubated at room temperature for 1 hour with secondary antibodies. Finally, following nuclear staining with DAPI, the cells were examined by a fluorescence microscope (Zeiss, Germany).

IL-4 receptor [2] = biological target: T1, IL-4 receptor (Mus musculus, UniProt P16382); test: In vivo optical imaging and histological analysis of peptide binding in 4T1 tumor cells-transplanted mice; conditions: for fluorescence in tumor tissues: Flamma 675-labeled peptide, tail vein
T1 construct: from tissue; host or cells: 4T1 tumour tissue in wild-type Balb/c mice (IL4R alpha knockout mice as negative control)
T1 sequence (P16382 26-810): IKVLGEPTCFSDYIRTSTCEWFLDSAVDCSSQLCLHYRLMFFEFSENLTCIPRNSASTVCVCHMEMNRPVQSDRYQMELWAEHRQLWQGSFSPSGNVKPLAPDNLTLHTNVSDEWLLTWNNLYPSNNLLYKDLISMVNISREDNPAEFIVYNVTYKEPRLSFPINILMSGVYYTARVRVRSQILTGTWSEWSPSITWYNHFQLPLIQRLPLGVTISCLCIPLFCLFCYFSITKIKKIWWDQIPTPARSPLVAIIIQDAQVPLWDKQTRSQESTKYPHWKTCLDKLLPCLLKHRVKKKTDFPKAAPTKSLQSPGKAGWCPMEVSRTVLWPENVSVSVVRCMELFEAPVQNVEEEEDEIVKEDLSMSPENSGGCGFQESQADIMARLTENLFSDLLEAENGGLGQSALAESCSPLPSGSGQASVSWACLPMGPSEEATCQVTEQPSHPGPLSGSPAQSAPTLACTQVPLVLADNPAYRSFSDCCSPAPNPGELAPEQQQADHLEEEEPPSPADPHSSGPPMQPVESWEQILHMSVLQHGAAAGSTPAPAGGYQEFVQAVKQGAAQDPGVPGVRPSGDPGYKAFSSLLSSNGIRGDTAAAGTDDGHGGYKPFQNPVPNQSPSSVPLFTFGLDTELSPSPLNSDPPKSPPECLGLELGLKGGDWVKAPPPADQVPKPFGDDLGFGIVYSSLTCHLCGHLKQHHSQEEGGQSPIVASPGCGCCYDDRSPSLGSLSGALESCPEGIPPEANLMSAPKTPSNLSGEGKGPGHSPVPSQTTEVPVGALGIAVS
Excerpt: Female wild-type Balb/c mice were purchased from Orient Bio (Republic of Korea) to prepare IL-4 receptor-deficient mice. Mouse tumor models were produced by subcutaneously injecting 1×10^6 4T1 tumor cells into the flank top skin of the wild-type and IL-4 receptor-deficient mice, respectively. Orthotopic animal models were produced by injecting 1×10^6 4T1 cells into the mammary fat tissue of the mice.
(§1) The Flamma 675-labeled IL4RPep-1 peptide (SEQ ID NO: 1) and control peptide (NSSSVDK) of SEQ ID NO: 7 were administered via the tail vein of 4T1 tumor cells-transplanted wild-type mice and the IL-4 receptor-deficient mice, respectively. In vivo imaging was conducted using the Optix imaging system (ART Inc., Canada) after one hour and two hours circulation. The mice were sacrificed after imaging, and tumors and organs were then excised for ex vivo imaging.
For immunohistochemical analysis, excised tumors were fixed with 4% PFA and dehydrated with 30% sucrose. 8 μm thick slices of the tumor were prepared and their histological structures were evaluated by DAPI staining.
Additionally, in order to analyze the tendency of […] of the peptide and the receptor in the tumor tissues, the tumor samples were immunostained with anti-IL4Rα antibodies and F4/80 antibodies, followed by detection with Alexa-488/594-conjugated secondary IgG antibodies (invitrogen).

IL-10-treated 4T1 cells = test: IL4RPep-1 binding affinity assay on IL-10-treated versus wild-type 4T1 cells; set-up: species or system mouse; conditions: FIG. 9A
Experimental: Blocking the tumor cells with 1% BSA at room temperature for 30 minutes, the biotin-labeled IL4RPep-1 peptides of various concentrations (1 to 80 μM) were incubated for 1 hour. After washing with PBS, the cells were incubated with Neutravidin HRP (1: 10000) at room temperature for 30 minutes. HRP activity was measured by using the TMB substrate, and the reaction was stopped using 2M sulfuric acid. Absorbance was measured at 450 nm using TECAN microplate reader. Kd values were calculated using Graph Pad Prism 6 software (GraphPad software Inc., La Jolla, La.).
4T1 cells were cultured using DMEM medium containing 50% of the mouse spleen-derived macrophages which were differentiated into M2 type macrophages. As for the culture medium containing TAM, the debris was removed by centrifugation and strainer prior to use. Cytokine-induced epithelial mesenchymal transition was implemented by culturing the cells with mouse IL-10 and mouse IL-4 for 24 hours or with mouse TFGβ-containing medium for 48 hours. Subsequently, the cells were stained with N-cadherin (a mesenchymal marker), and the expression level of IL-4 receptor was evaluated.

4T1 tumor = test: In vivo anti-cancer and cancer metastasis inhibitory activity, orthotopic 4T1 tumor model; set-up: species or system mouse
Experimental: Orthotropic 4T1 tumor model were produced by the implantation of 1×10^6 4T1 cells into the left mammary fat pad of the wild-type Balb/c mouse. Tumor was left to grow until its size reached approximately 100 mm^3, followed by random segregation of mice into separate groups for administration. Mice were separated into a total of six groups with five […] in each group. Peptides ([…] ID NO: 1) and […] fusion polypeptide (SEQ ID NO: 3), respectively) were administered via the tail vein of the mouse at an equimolar concentration (1 mM peptide 200/20 g body weight of mice, administered 3 times a week for 4 weeks). Mice of the other three groups were intraperitoneally administered with 8 mg/kg dosage concentration of paclitaxel once a week, in addition to the administration of the peptides. […] The weight and tumor size of the mice were observed after administration. The tumor size was measured with a digital caliper, and the volume of the tumor was calculated by the following equation: V=(L×W×H)/2 (L: the longest-length, W: Short length, H: height) The mice were sacrificed after the last dose, and metastasis of the tumor into the lungs and liver was evaluated. The excised tumors and organs were fixed in 4% PFA and used for additional immunohistological analysis. Frozen tumor tissues were blocked with a blocking solution of 1 g of BSA, 0.2 g of gelatin and 0.05 g of saponin dissolved in PBS, followed by incubation using primary antibodies for 11⁄2 hours and staining using HRP-labeled secondary antibodies for 45 minutes at room temperature. The stained tissues were exposed using DAB (DAKO) and a contrast dyeing was performed using hematoxylin for 5 minutes at room temperature. Each step moved onto the next one after washing with PBS containing 10% blocking solution. Finally, the tissues were observed by Bright Field Microscopy.

[3] = tested on: M2 type macrophages (tumor-associated macrophages, TAM)
Experimental: (§2) Absorbance was measured at 450 nm, and cytotoxicity was calculated by the following equation:
(§3) Cell viability=(A sample−A blank/A control−A blank)×100
(§4) A control=Absorbance value of the well which contains only cells and CCK8 solution

[4] = tested on: IL-10-treated 4T1 tumor cells; test: Cytotoxicity evaluation (CCK8 kit); assay type: cell-based, mouse; conditions: FIG. 10B
Experimental: as §2, §3, §4

wild-type 4T1 cells = test: Cytotoxicity evaluation (CCK8 kit); assay type: cell-based, mouse; conditions: FIG. 10A
Experimental: as §2, §3, §4

mouse IL-4 receptor = biological target: T2, mouse IL-4 receptor (mouse, UniProt P16382 26-810); test: in vivo and ex vivo fluorescence imaging, Flamma 675-labelled peptide, 4T1 tumor-bearing Balb/c mice
T2 construct: whole, on cells; The target is endogenous receptor on mouse cells, not a purified protein; also called IL4R alpha
T2 sequence (looked up): T1 sequence (P16382 26-810)
Experimental: as §1
It was evaluated whether the IL4RPep-1 peptide having the amino acid sequence of SEQ ID NO: 1 specifically binds to IL-4 receptor in 4T1 tumor cells-transplanted Balb/c wild-type mice and Balb/c IL-4 receptor-deficient (knockout) mice, respectively. That is, Flamma 675-labeled IL4RPep-1 peptides and control peptides (NSSSVDK, SEQ ID NO: 7) were administered into the tail vein of the mouse, respectively, followed by real time observation for fluorescence intensity.

[5] = 4T1-transplanted wild-type Balb/c mice, in vivo and ex vivo
[6] = frozen tumor sections, antibody staining, versus control group, FIG. 13

Experimental for M1-type macrophages: as §2, §3, §4

CRKRLDRNC [IL4RPep-1] was tested. Which “binding to cells versus expression pattern of IL-4 receptors” value (IL-4 receptor [1]; 4T1, A549, MDA-MB 231, M1 and M2 type Raw 264.7 cells, FITC-labeled peptide 10 μM) did it give?
Its value is “specifically bind to IL-4 receptors”.

And the “binding pattern to cells versus expression pattern of IL-4 receptors” value (IL-4 receptor [1]; mouse spleen-derived M1 type and M2 type macrophages, FIG. 2A)?
Its value is “the same as the expression pattern of IL-4 receptors”.

And the “fluorescence in tumor tissues” value (IL-4 receptor [2]; 4T1-transplanted IL-4 receptor-deficient (knockout) Balb/c mice)?
Its value is “no fluorescence was detected”.

And the “fluorescence in tumor tissues” value (IL-4 receptor [2]; [5])?
Its value is “strongly detected”.

And the “peptide binding in excised tumor tissue fragments” value (IL-4 receptor [2]; IL-4 receptor-deficient mice, immunostaining, FIG. 4B)?
The value was “no binding”.

And the “peptide staining in excised tumor tissue fragments” value (IL-4 receptor [2]; wild-type mice, immunostaining, FIG. 4A)?
The value was “in the same pattern as that of IL-4 receptors”.

What about the “binding affinity in IL-10-treated 4T1 cells compared with wild-type 4T1 cells” value (IL-10-treated 4T1 cells) of the same molecule?
Its value is “significantly excellent”.

How did the “fluorescence in tumor tissues” value (IL-4 receptor [2]; [5]) turn out when “NSSSVDK [control peptide, reference compound]” was run?
The value was “no fluorescence was detected”.

Which results are given for “CRKRLDRNCGGGKLAKLAKKLAKLAK (Fusion peptide) [IL4RPep-1-KLA]”?
tumor growth (4T1 tumor; Balb/c mice, tail vein, 3 times a week for 4 weeks, from administration until end of experiment, FIG. 11): significantly suppressed; CD4(+) T cells in tumor tissue (4T1 tumor; [6]): decreased; CD8 (+) T cells in tumor tissue (4T1 tumor; [6]): increased; CD80(+) macrophages in tumor tissue (4T1 tumor; [6]): increased; F4/80(+) tumor-associated macrophages in tumor tissue (4T1 tumor; [6]): reduced; N-cadherins in tumor tissue (4T1 tumor; [6]): reduced; metastasis of cancer in liver and lungs (4T1 tumor; organs excised after final administration, FIGS. 12A and 12B): not observed at all; cytotoxicity [3]: excellent cytotoxicity; cytotoxicity [4]: excellent cytotoxicity; cytotoxicity (M1-type macrophages): insignificant; cytotoxicity (wild-type 4T1 cells): insignificant

Does NSSSVDK (also: Flamma 675 label, position not given here, Control peptide) [control peptide (NSSSVDK)] bind (mouse IL-4 receptor)?
Result: no binding
